Entries after “also recorded” stand apart in the source; their conditions may differ. Read-outs that look alike come from different tables or passages of the source.
Experiments:
[1] = Formulation stability of PPC injectable preparations: property, transparency, particle size, pH
[2] = system: Caspase 3 in 3T3-L1 adipocytes; test: Caspase 3 activity assay; type: cell-based; conditions: 0-48 hours; listed as PPC single composition
Experimental: The Caspase 3 activity assay was performed with the test materials to determine whether the cell death in the result of MTT assay was due to necrosis or apoptosis. The Caspase 3 specifically increases when apoptosis occurs and is a marker of apoptosis. […] The cells were then treated with 50 ul of cell lysis buffer (10 mM Tris-HCl, 10 mM NaH2PO4/NaHPO4, pH 7.5, 130 mM NaCl, 1% Triton X-100 and 10 mM sodium pyrophosphate) and left at 4° C. for […]. The supernatant was collected by centrifugation at 1000× rpm for 1 minute, and protein quantification was performed by BCA method. The 50 μl of reaction buffer (4 mM HEPES, pH 7.5, 10% glycerol, 2 mM dithiothreitol) and 0.5 μl of 4 mM DEVD-p-NA were added to each sample and reacted at 37° C. for 1 hour. Then wavelength was measured with a […] at 405 nm.

3T3-L1 adipocytes [3] = test: Adipocyte (3T3-L1) reducing effect, MTT assay; type: cell-based; conditions: for adipocyte-reducing activity compared with DCA 1.0% (Kybella): 96 hours
Experimental: Tests were performed to compare the adipocyte reducing activity of the PPC single composition and the PPC composition solubilized with bile acids. Differentiated 3T3L-1 adipocyte lines were used to observe adipocyte reduction activity, and cell viability was monitored by MTT assay. […] Materials and methods employed in the following experiments are described below. In the following, % of the composition refers to % (w/v).
The specific test methods are as follows. […] The cells were washed twice with PBS, treated with MTT reagent (50 μl) and left at 37° C. for 2 hours. After removing the supernatant, MTT formazan crystals were dissolved in DMSO and the absorbance was measured at 540 nm using a microplate reader.
The 3T3-L1 adipocyte (ATCC) was cultured in Dulbecco's modified eagle medium (DMEM) (Invitrogen) supplemented with 10% fetal bovine serum, 100 units/ml penicillin and 100 μg/ml streptomycin under the condition of 5% CO2 and 37° C. […] Subsequently, the medium was replaced with DMEM medium containing 1 μg/ml insulin (Sigma), and the culture medium was maintained and changed every 2 to 3 days until the degree of differentiation reaches maximum. If it took more than 7 days, the cells were kept in normal DMEM culture medium until starting the tests. […] After the cells were incubated for 3 hours under the condition of 37° C. and 5% CO2, the MTT solution was removed.

3T3-L1 adipocytes [4] = test: Lipolysis assay (glycerol release); type: cell-based; conditions: 48 hours; listed as PPC single
Experimental: The glycerol activity assay was performed with the test materials to determine whether the cell death in the MTT assay was due to necrosis or lipolysis. Glycerol is a specific marker that increases when fat breaks down. Abcam Lipolysis Assay Kit (Colorimetric) was used according to the manufacturer's manual, and the method of the test was as follows: […] And then the lysis was induced. […] After adding the glycerol assay complex (50 μl) thereto, the solution was incubated at room temperature for 30 minutes. Absorbance was measured at OD 570 (using standard curve for absolute determination).

mouse paw = test: In vivo pain: moving distance and moving speed after paw injection; conditions: 100 ul into paw, 2 hours after administration, 5 minutes; listed as PPC 5.0%
Experimental: Specifically, 100 μl of each test material was injected into the floor of the paws of the rats, and edema was observed. […] The movement before and after injection of the test material was compared through distance and time. The movement before and after injection was measured using Noldus Video Traking system and compared with moving distance (FIG. 13A) and moving speed (FIG. 13B).
After the edema was confirmed to be the most at 2 hours after administration, the moving distance (cm) and the moving speed (cm/s) for 5 minutes were compared using Noldus Video Traking system.

[5] = system: tissues of the injected area (rat paw); test: H&E staining histological test (inflammation) of injected rat paw; type: in vivo, Sprague Dawley rats; conditions: for Inflammation reaction: GCA 0.0, H&E of injected rat paw; for degree of inflammation (H&E) in words: rats sacrificed at 3 hours, injected paw
Experimental: The tissues of the injected area were dissected, fixed with 10% formalin, and then the specimen was prepared and images were captured using an optical microscope. The degree of inflammation was evaluated as follows.

inguinal fat pad = conditions: 0.2 ml s.c. once into inguinal fat pad, 8 days post-injection
paw of the rats = test: Rat paw edema; type: in vivo, Sprague Dawley rats; conditions: for degree of edema, 1 hour after administration / degree of edema, 2 hours after administration / degree of edema, Immediately after administration: 0.1 ml into rat paw, swelling vs before injection; for degree of edema in words: 2 hours after administration, rat paw
Procedure, shortened: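 Male Sprague Dawley rats (6 weeks old, 170–200 g) received 0.1 ml of PBS or test composition into the paw. Paw thickness measured by caliper before, immediately after, and 1 or 2 h post-injection; edema graded 0–4, with injection-site skin lesions photographed.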

In the case of “1,2-diacyl-sn-glycero-3-phosphocholine [PPC]”, the “formulation stability / property in words” value [1] is reported as “poor formulation stability”, the caspase-3 activity [2] is reported as “time-dependent effect of inducing caspase-3 activity to a considerable level; also recorded: time-dependent effect of inducing caspase-3 activity to a considerable extent” and the “adipocyte viability / adipocyte-reducing activity” value (3T3-L1 adipocytes [3]; 24 to 96 hours, various concentrations, listed as PPC single composition) is reported as “reduced adipocyte viability in time and concentration dependent manner”. The “adipocyte-reducing activity compared with DCA 1.0% (Kybella)” value (3T3-L1 adipocytes [3]; listed as PPC 5%) was “equivalent”, the “adipocyte-reducing activity compared with DCA 1.0% (Kybella)” value (3T3-L1 adipocytes [3]; listed as PPC 5.0%) was “similar; also recorded: equivalent” and the “concentration of phosphatidylcholine with no lipolysis effect” value (3T3-L1 adipocytes [3]; FIGS. 7A to 7D) was “less than 0.625 % (w/v)”. The “glycerol release / cytolytic activity” value (3T3-L1 adipocytes [4]) was “slightly higher cytolytic activity than at 24 hours; also recorded: slightly higher cytolytic activity than that of 24 hours”, the “change of moving distance and moving speed” value (mouse paw) was “not changed or slightly increased; also recorded: wasn't changed or was slightly increased” and the Inflammation reaction ([5]; PPC single composition 2.50% (w/v)) was “−”. The Inflammation reaction ([5]; PPC single composition 5.00% (w/v)) was “−”, the Inflammation reaction ([5]; PPC single composition 7.50% (w/v)) was “−” and the Inflammation reaction ([5]; PPC single composition 10.0% (w/v)) was “+”. The Inflammation reaction ([5]; PPC single composition 12.5% (w/v)) was “+”, the Inflammation reaction ([5]; PPC single composition 15.0% (w/v)) was “++” and the “degree of inflammation (H&E) in words” value ([5]; listed as PPC 10.0%) was “Mild”. The “degree of inflammation (H&E) in words” value ([5]; listed as PPC 12.5%) was “Mild”, the “degree of inflammation (H&E) in words” value ([5]; listed as PPC 15.0%) was “moderate” and the “inflammation at the site of administration, dermal and epidermal tissues” value (inguinal fat pad) was “no inflammatory cells such as neutrophils”. For the same substance, the “histological change of adipocytes in fat tissue” value (“histological change” for short) (inguinal fat pad; listed as PPC 5.0%) was “size of adipocytes was reduced”, the “histological change” value (inguinal fat pad; listed as PPC 15.0%) was “development of macrophages was confirmed around adipocytes” and the “histological change” value (inguinal fat pad; listed as PPC single composition) was “adipocyte apoptosis and degradation were induced in a concentration-dependent manner”. For the same substance, the “degree of edema, 1 hour after administration” value (“degree of edema, 1 hour” below) (paw of the rats; listed as PPC 1.25%) was “+ (mild edema [+, (the degree of swelling was 1-20% compared to before the injection)])”, the “degree of edema, 2 hours after administration” value (“degree of edema, 2 hours” for short) (paw of the rats; listed as PPC 1.25%) was “+ (mild edema [+, (the degree of swelling was 1-20% compared to before the injection)])” and the “degree of edema, Immediately after administration” value (shortened to “degree of edema, Immediately”) (paw of the rats; listed as PPC 1.25%) was “+ (mild edema [+, (the degree of swelling was 1-20% compared to before the injection)])”. The “degree of edema, 1 hour” value (paw of the rats; listed as PPC 2.50%) was “+ (mild edema [+, (the degree of swelling was 1-20% compared to before the injection)])”, the “degree of edema, 2 hours” value (paw of the rats; listed as PPC 2.50%) was “+ (mild edema [+, (the degree of swelling was 1-20% compared to before the injection)])” and the “degree of edema, Immediately” value (paw of the rats; listed as PPC 2.50%) was “+ (mild edema [+, (the degree of swelling was 1-20% compared to before the injection)])”. For the same substance, the “degree of edema, 1 hour” value (paw of the rats; listed as PPC 5.00%) was “+ (mild edema [+, (the degree of swelling was 1-20% compared to before the injection)])”, the “degree of edema, 2 hours” value (paw of the rats; listed as PPC 5.00%) was “+ (mild edema [+, (the degree of swelling was 1-20% compared to before the injection)])” and the “degree of edema, Immediately” value (paw of the rats; listed as PPC 5.00%) was “+ (mild edema [+, (the degree of swelling was 1-20% compared to before the injection)])”. The “degree of edema, 1 hour” value (paw of the rats; listed as PPC 7.50%) was “+ (mild edema [+, (the degree of swelling was 1-20% compared to before the injection)])”, the “degree of edema, 2 hours” value (paw of the rats; listed as PPC 7.50%) was “+ (mild edema [+, (the degree of swelling was 1-20% compared to before the injection)])” and the “degree of edema, Immediately” value (paw of the rats; listed as PPC 7.50%) was “++ (moderate edema [++, (the degree of swelling was 20-40% compared to before the injection)])”. For the same substance, the “degree of edema, 1 hour” value (paw of the rats; listed as PPC 10.0%) was “+ (mild edema [+, (the degree of swelling was 1-20% compared to before the injection)])”, the “degree of edema, 2 hours” value (paw of the rats; listed as PPC 10.0%) was “+ (mild edema [+, (the degree of swelling was 1-20% compared to before the injection)])” and the “degree of edema, Immediately” value (paw of the rats; listed as PPC 10.0%) was “++ (moderate edema [++, (the degree of swelling was 20-40% compared to before the injection)])”. For the same substance, the “degree of edema, 1 hour” value (paw of the rats; listed as PPC 12.5%) was “++ (moderate edema [++, (the degree of swelling was 20-40% compared to before the injection)])”, the “degree of edema, 2 hours” value (paw of the rats; listed as PPC 12.5%) was “++ (moderate edema [++, (the degree of swelling was 20-40% compared to before the injection)])” and the “degree of edema, Immediately” value (paw of the rats; listed as PPC 12.5%) was “++ (moderate edema [++, (the degree of swelling was 20-40% compared to before the injection)])”. For the same substance, the “degree of edema, 1 hour” value (paw of the rats; listed as PPC 15.0%) was “++ (moderate edema [++, (the degree of swelling was 20-40% compared to before the injection)])”, the “degree of edema, 2 hours” value (paw of the rats; listed as PPC 15.0%) was “++ (moderate edema [++, (the degree of swelling was 20-40% compared to before the injection)])” and the “degree of edema, Immediately” value (paw of the rats; listed as PPC 15.0%) was “+++ (severe edema [+++, (the degree of swelling was 40-60% compared to before the injection)])”. For the same substance, the “degree of edema in words” value (paw of the rats; listed as PPC 12.5%) was “moderate” and the “degree of edema in words” value (paw of the rats; listed as PPC 15.0%) was “moderate”.

From patent US11298314B2, “Injectable composition for localized fat reduction without pain, edema, and side effects, and method for preparing same” (AMI PHARM CO., LTD., priority 2017, dated 2022)
